Assay results published in patent US7176316B2, “Amino-piperidine derivatives” (Hoffmann-La Roche Inc., priority 2003, dated 2007).

The molecules below were run against T1, hGlyT-1b (Homo sapiens, UniProt P48067) (assay: Glycine uptake inhibition assay (hGlyT-1b), [3H]-glycine uptake in transfected CHO cells). Conditions: not given.
T1 sequence (P48067 1-652 isoform P48067-3): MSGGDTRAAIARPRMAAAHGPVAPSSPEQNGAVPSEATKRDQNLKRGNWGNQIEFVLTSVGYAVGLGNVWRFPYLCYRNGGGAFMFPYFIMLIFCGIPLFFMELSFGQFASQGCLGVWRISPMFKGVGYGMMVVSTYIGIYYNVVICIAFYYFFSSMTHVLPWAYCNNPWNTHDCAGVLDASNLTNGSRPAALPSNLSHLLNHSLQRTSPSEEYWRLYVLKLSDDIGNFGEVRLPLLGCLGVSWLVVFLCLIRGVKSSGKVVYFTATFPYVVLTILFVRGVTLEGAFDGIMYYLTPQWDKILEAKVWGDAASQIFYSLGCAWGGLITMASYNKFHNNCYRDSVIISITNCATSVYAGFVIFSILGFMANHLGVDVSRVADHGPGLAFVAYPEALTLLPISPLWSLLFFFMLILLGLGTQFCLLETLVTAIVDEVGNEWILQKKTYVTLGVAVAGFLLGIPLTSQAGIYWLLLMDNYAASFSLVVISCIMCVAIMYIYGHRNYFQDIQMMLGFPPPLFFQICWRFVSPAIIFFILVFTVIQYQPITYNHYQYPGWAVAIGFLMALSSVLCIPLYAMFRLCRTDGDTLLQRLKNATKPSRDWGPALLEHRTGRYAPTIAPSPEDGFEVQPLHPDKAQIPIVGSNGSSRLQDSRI

Molecule	IC50
O=S(=O)(c1ccc(Cl)c(Cl)c1)N(c1ccccc1)C1CCN([C@@H]2CCCC[C@@H]2c2ccccc2)CC1 (racemic) [Example 1, (+/−)-3,4-Dichloro-N-phenyl-N-[cis-1-(2-phenyl-cyclohexyl)-piperidin-4-yl]-benzenesulfonamide]	0.048 µM
COc1ccc(S(=O)(=O)N(c2cccc(OC)c2)C2CCN([C@@H]3CCCC[C@@H]3c3ccccc3)CC2)cc1 (racemic) [Example 3, (+/−)-4-Methoxy-N-(3-methoxy-phenyl)-N-[cis-1-(2-phenyl-cyclohexyl)-piperidin-4-yl]-benzenesulfonamide]	0.094 µM
COc1ccc(S(=O)(=O)N(c2ccccc2)C2CCN([C@@H]3CCCC[C@@H]3c3ccccc3)CC2)cc1 (racemic) [Example 11, (+/−)-4-Methoxy-N-phenyl-N-[cis-1-(2-phenyl-cyclohexyl)-piperidin-4-yl]-benzenesulfonamide]	0.056 µM
Cc1ccc(S(=O)(=O)N(c2ccc(F)cc2)C2CCN([C@@H]3CCCC[C@@H]3c3ccccc3)CC2)cc1 (racemic) [Example 67, (+/−)-N-(4-Fluoro-phenyl)-4-methyl-N-[cis-1-(2-phenyl-cyclohexyl)-piperidin-4-yl]-benzenesulfonamide]	0.099 µM
COc1ccc(S(=O)(=O)N(c2ccc(F)cc2)C2CCN([C@@H]3CCCC[C@@H]3c3ccccc3)CC2)cc1 (racemic) [Example 69, (+/−)-N-(4-Fluoro-phenyl)-4-methoxy-N-[cis-1-(2-phenyl-cyclohexyl)-piperidin-4-yl]-benzenesulfonamide]	0.029 µM
COc1ccc(S(=O)(=O)N(c2cccc(C(F)(F)F)c2)C2CCN([C@@H]3CCCC[C@@H]3c3ccccc3)CC2)cc1 (racemic) [Example 75, (+/−)-4-Methoxy-N-[cis-1-(2-phenyl-cyclohexyl)-piperidin-4-yl]-N-(3-trifluoromethyl-phenyl)-benzenesulfonamide]	0.068 µM
COc1ccc(S(=O)(=O)N(c2ccccc2)C2CCN([C@@H]3CCCC[C@@]3(O)c3ccccc3)CC2)cc1 (racemic) [Example 99, (+/−)-N-[cis-1-(2-Hydroxy-2-phenyl-cyclohexyl)-piperidin-4-yl]-4-methoxy-N-phenyl-benzenesulfonamide]	0.028 µM
COc1ccc(S(=O)(=O)N(c2ccc(Cl)cc2)C2CCN([C@@H]3CCCC[C@@]3(O)c3ccccc3)CC2)cc1 (racemic) [Example 102, (+/−)-N-(4-Chloro-phenyl)-N-[cis-1-(2-Hydroxy-2-phenyl-cyclohexyl)-piperidin-4-yl]-4-methoxy-benzenesulfonamide]	0.092 µM
COc1ccc(S(=O)(=O)N(c2ccc(Cl)cc2)C2CCN([C@@H]3CCCC[C@@]3(O)c3cccnc3)CC2)cc1 (racemic) [Example 105, (+/−)-N-(4-Chloro-phenyl)-N-[cis-1-(2-hydroxy-2-pyridin-3-yl-cyclohexyl)-piperidin-4-yl]-4-methoxy-benzenesulfonamide]	0.084 µM
COc1ccc(S(=O)(=O)N(c2ccccc2)C2CCN([C@@H]3CCCC[C@@]3(O)c3ccc(Cl)cc3)CC2)cc1 (racemic) [Example 107, (+/−)-N-{cis-1-[2-(4-Chloro-phenyl)-2-hydroxy-cyclohexyl]-piperidin-4-yl}-4-methoxy-N-phenyl-benzenesulfonamide]	0.083 µM
COc1ccc(S(=O)(=O)N(c2ccccc2)C2CCN([C@@H]3CCCC[C@@]3(O)c3ccc(F)cc3)CC2)cc1 (racemic) [Example 108, (+/−)-N-{cis-1-[2-(4-Fluoro-phenyl)-2-hydroxy-cyclohexyl]-piperidin-4-yl}-4-methoxy-N-phenyl-benzenesulfonamide]	0.04 µM
COc1ccc(S(=O)(=O)N(c2ccccc2)C2CCN([C@@H]3CCCC[C@@]3(O)c3ccncc3)CC2)cc1 (racemic) [Example 109, (+/−)-N-[cis-1-(2-Hydroxy-2-pyridin-4-yl-cyclohexyl)-piperidin-4-yl]-4-methoxy-N-phenyl-benzenesulfonamide]	0.073 µM
COc1ccc(S(=O)(=O)N(c2ccccc2)C2CCN([C@@H]3CCCC[C@@]3(O)c3cccnc3)CC2)cc1 (racemic) [Example 110, (+/−)-N-[cis-1-(2-Hydroxy-2-pyridin-3-yl-cyclohexyl)-piperidin-4-yl]-4-methoxy-N-phenyl-benzenesulfonamide]	0.076 µM
COc1ccc(S(=O)(=O)N(c2ccccc2)C2CCN([C@@H]3CCCC[C@@]3(O)c3ccccc3C)CC2)cc1 (racemic) [Example 111, (+/−)-N-[cis-1-(2-Hydroxy-2-o-tolyl-cyclohexyl)-piperidin-4-yl]-4-methoxy-N-phenyl-benzenesulfonamide]	0.068 µM
COc1ccc(S(=O)(=O)N(c2ccc(F)cc2)C2CCN([C@@H]3CCCC[C@@]3(O)c3ccccc3)CC2)cc1 (racemic) [Example 112, (+/−)-N-(4-Fluoro-phenyl)-N-[cis-1-(2-Hydroxy-2-phenyl-cyclohexyl)-piperidin-4-yl]-4-methoxy-benzenesulfonamide]	0.061 µM
COc1ccc(S(=O)(=O)N(c2ccc(F)cc2)C2CCN([C@@H]3CCCC[C@@]3(O)c3ccc(F)cc3)CC2)cc1 (racemic) [Example 114, (+/−)-N-(4-Fluoro-phenyl)-N-{cis-1-[2-(4-fluoro-phenyl)-2-hydroxy-cyclohexyl]-piperidin-4-yl}-4-methoxy-benzenesulfonamide]	0.066 µM
COc1ccc(S(=O)(=O)N(c2ccc(F)cc2)C2CCN([C@@H]3CCCC[C@@]3(O)c3ccncc3)CC2)cc1 (racemic) [Example 115, (+/−)-N-(4-Fluoro-phenyl)-N-[cis-1-(2-hydroxy-2-pyridin-4-yl-cyclohexyl)-piperidin-4-yl]-4-methoxy-benzenesulfonamide]	0.071 µM
COc1ccc(S(=O)(=O)N(c2cccc(C(F)(F)F)c2)C2CCN([C@@H]3CCCC[C@@]3(O)c3ccncc3)CC2)cc1 (racemic) [Example 120, (+/−)-N-[cis-1-(2-Hydroxy-2-pyridin-4-yl-cyclohexyl)-piperidin-4-yl]-4-methoxy-N-(3-trifluoromethyl-phenyl)-benzenesulfonamide]	0.091 µM
COc1ccc(S(=O)(=O)N(c2cccc(C(F)(F)F)c2)C2CCN([C@@H]3CCCC[C@@]3(O)c3cccnc3)CC2)cc1 (racemic) [Example 121, (+/−)-N-[cis-1-(2-Hydroxy-2-pyridin-3-yl-cyclohexyl)-piperidin-4-yl]-4-methoxy-N-(3-trifluoromethyl-phenyl)-benzenesulfonamide]	0.071 µM
COc1ccc(S(=O)(=O)N(c2cccc(OC)c2)C2CCN([C@@H]3CCCC[C@@]3(O)c3ccccc3)CC2)cc1 (racemic) [Example 123, (+/−)-N-[cis-1-(2-Hydroxy-2-phenyl-cyclohexyl)-piperidin-4-yl]-4-methoxy-N-(3-methoxy-phenyl)-benzenesulfonamide]	0.095 µM
COc1ccc(S(=O)(=O)N(c2cccc(OC)c2)C2CCN([C@@H]3CCCC[C@@]3(O)c3ccc(F)cc3)CC2)cc1 (racemic) [Example 125, (+/−)-N-{cis-1-[2-(4-Fluoro-phenyl)-2-hydroxy-cyclohexyl]-piperidin-4-yl}-4-methoxy-N-(3-methoxy-phenyl)-benzenesulfonamide]	0.096 µM
COc1ccc(S(=O)(=O)N(c2ccccc2)C2CCN([C@@H]3CCCC[C@]3(O)c3ccccc3)CC2)cc1 (racemic) [Example 159, (+/−)-N-[trans-1-(2-Hydroxy-2-phenyl-cyclohexyl)-piperidin-4-yl]-4-methoxy-N-phenyl-benzenesulfonamide]	0.068 µM
COc1ccc(S(=O)(=O)N(c2ccc(F)cc2)C2CCN([C@@H]3COCC[C@@]3(O)c3ccccc3)CC2)cc1 (racemic) [Example 163, (+/−)-N-(4-Fluoro-phenyl)-N-[cis-1-(4-hydroxy-4-phenyl-tetrahydro-pyran-3-yl)-piperidin-4-yl]-4-methoxy-benzenesulfonamide]	0.085 µM
COc1ccc(S(=O)(=O)N(c2ccccc2)C2CCN([C@@H]3CCCC[C@@]3(O)c3ccccc3)CC2)cc1 [Example 100, (+)-N-[cis-1-(2-Hydroxy-2-phenyl-cyclohexyl)-piperidin-4-yl]-4-methoxy-N-phenyl-benzenesulfonamide]	0.015 µM

Same assay, conditions: read-out: IC50 (μM) at GlyT-1

Molecule	IC50
(+)-4-Methoxy-N-phenyl-N-[cis-1-(2-phenyl-cyclohexyl)-piperidin-4-yl]-benzenesulfonamide [Example 96]	0.049 µM
